We go through 2 compounds from publication PMC6943619, “Synthesis and Pharmacological Evaluation of Hybrids Targeting Opioid and Neurokinin Receptors” (Molecules, 2019).

Experiment [1] has as its target T1, human opioid receptor KOR (Homo sapiens, UniProt P41145).
T1 construct: purchased PerkinElmer (Krakow, Poland); host or cells: CHO cell membranes
Nature of the experiment: Radioligand binding assay, displacement of [3H]U-69593. As to conditions: displacement of [3H]U-69593 from membranes of CHO cells transfected with human KOR, 50 mM Tris/HCl pH 7.4, 0.5% BSA, peptidase inhibitors, 2 h at 25 °C, mean ± SEM, n ≥ 3. The protocol: A radioligand binding assay was performed to determine the opioid receptor (OR) binding affinities of the novel analogs using commercially available membranes of Chinese hamster ovary cells (CHO) transfected with human recombinant ORs. [^3H]DAMGO, [^3H]deltorphin-2, and [^3H]U-69593 were used as the radioligands for MOR, DOR, and KOR, respectively. Tyr-[D-Lys-Phe-Phe-Asp]NH2 (1) was used as a reference opioid compound. […] None of them acquired significant DOR affinity.
(§1) To determine the affinity of peptide analogs to respective receptors, competition binding experiments were performed, as described in detail elsewhere.
Commercial membranes of CHO cells stably expressing either human ORs or NK1 receptor were used. [^3H]DAMGO, [^3H]deltorphin-2, and [^3H]U-69593 were employed as the competing radioligands for MOR, DOR, and KOR, respectively, while [^3H][Sar^9, Met(O2)^11]SP was utilized for the NK1 receptor. Membranes were incubated in a 0.5 mL volume of 50 mM Tris/HCl (pH = 7.4), 0.5% bovine serum albumin (BSA), with a number of peptidase inhibitors (bacitracin, bestatin, captopril) and various concentrations of radioligands for 2 h at 25 °C. Nonspecific binding was assessed in the presence of […] naloxone for ORs or SP for NK1 receptor.
The pharmacological terminology adopted in this paper is consistent with International Union of Basic and Clinical Pharmacology (IUPHAR) recommendations. Concentration–response curves were analyzed by nonlinear regression using Graph Pad Prism 6.0 (La Jolla, CA, USA). […]. […] Concentration–response curves were fitted with the four-parameter logistic nonlinear regression model (1) Effect=baseline+Emax−baseline/1+10^logEC50−X·n where X is the agonist concentration and n is the Hill coefficient. Ligand efficacy was expressed as intrinsic activity (α) calculated as a ratio of the peptide Emax to the Emax of the standard agonist (Supplementary Materials, Figure S7). […]. All statistical analyses were performed using Graph Pad Prism 6.0 (La Jolla, CA, USA). Differences between groups were analyzed with one-way ANOVA and a post hoc multiple comparison by the Student–Newman–Keuls test. A probability level of 0.05 or smaller was used to indicate statistical significance.

Experiment [2] deals with T2, human MOR (Homo sapiens, UniProt P35372).
T2 construct: expressed in transfected cells; host or cells: CHO cells (University of Ferrara), co-expressing Gαqi5
T2 sequence (P35372 whole entry): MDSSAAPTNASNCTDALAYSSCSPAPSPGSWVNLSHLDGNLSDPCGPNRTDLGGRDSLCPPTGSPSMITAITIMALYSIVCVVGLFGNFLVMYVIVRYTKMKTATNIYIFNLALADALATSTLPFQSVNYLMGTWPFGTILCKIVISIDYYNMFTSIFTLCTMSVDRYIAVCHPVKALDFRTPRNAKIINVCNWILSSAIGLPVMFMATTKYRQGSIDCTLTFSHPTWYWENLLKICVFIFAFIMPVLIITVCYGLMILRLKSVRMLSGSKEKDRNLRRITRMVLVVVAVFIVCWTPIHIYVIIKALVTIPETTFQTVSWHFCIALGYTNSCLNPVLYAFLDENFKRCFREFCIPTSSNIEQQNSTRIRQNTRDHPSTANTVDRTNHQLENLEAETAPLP
As to the kind of experiment: Calcium mobilization functional assay, agonist mode. As to conditions: for MOR α ± SEM: efficacy (intrinsic activity), Emax relative to EM-2, mean ± SEM. The format is cell-based.

Experiment [3] concerns the target T3, human KOR (Homo sapiens, UniProt P41145).
T3 construct: expressed in transfected cells; host or cells: CHO cells (University of Ferrara), co-expressing Gαqi5
The description is as above. Conditions: for KOR α ± SEM: efficacy (intrinsic activity), Emax relative to dynorphin A, mean ± SEM. The format is cell-based.

For experiment [4], the system named is mice. Nature of the experiment: Writhing test (acetic acid, acute pain model). The experiment is classed as in vivo. Conditions: 5 mg/kg i.p., single injection 15 min before i.p. acetic acid (0.5%, 10 mL/kg), writhes counted 15 min, saline baseline about 35, average, n = 10.
Experiment [5] deals with mice. As to the kind of experiment: Tolerance development, writhing test after repeated injections. The experiment is classed as in vivo. Conditions: 5 mg/kg i.p. once daily for seven days, writhing test on Day 7, n = 10. Here is the method: To examine whether mice developed tolerance to hybrids 2 and 4, these analogs and analog 1 for comparison were injected once daily (5 mg/kg) for seven consecutive days. After repeated administration, the antinociceptive effect was determined on Day 7, performing the writhing test as above.
Figure 4 A comparison of the antinociceptive effect of single (Day 1) and repeated (Day 7) i.p. injections of opioid analog 1 and hybrids 2 and 4 at the dose of 5 mg/kg in the writhing test in mice. The data represent mean ± SEM, n = 10. Statistical significance was assessed using one-way ANOVA and a post hoc multiple comparison by the Student–Newman–Keuls test. *** p < 0.001, as compared to control.
Peptides were administered at the highest dose (5 mg/kg) used before in the writhing test. In the experiment, four new groups of animals (10 mice per group, housed in one cage) underwent repeated injections (i.p.) of saline or the tested compounds (Days 1–7). On Day 7, following saline or peptide administration, the writhing test was performed, as described above. The antinociceptive activity of a compound was compared to the activity obtained after a single injection of this compound in the corresponding dose (5 mg/kg).

Experiment [6] concerns the target human NK1 (Homo sapiens, UniProt P25103). As to the kind of experiment: Radioligand binding assay, displacement of [3H][Sar9, Met(O2)11]SP. As to conditions: displacement of [3H][Sar9, Met(O2)11]SP from membranes of CHO cells transfected with human NK1 receptor; 50 mM Tris/HCl pH 7.4, 0.5% BSA, peptidase inhibitors, 2 h at 25 °C; mean ± SEM, n ≥ 3; SEM. Details: purchased PerkinElmer (Krakow, Poland); host or cells: CHO cell membranes. Here is the method: The binding assay was also used to examine the affinity of the synthesized hybrids for NK1 in commercial membranes of CHO cells stably expressing human NK1.
as §1
Commercial membranes of CHO cells stably expressing either human ORs or NK1 receptor were used. […] Membranes were incubated in a 0.5 mL volume of 50 mM Tris/HCl (pH = 7.4), 0.5% bovine serum albumin (BSA), with a number of peptidase inhibitors (bacitracin, bestatin, captopril) and various concentrations of radioligands for 2 h at 25 °C.
The pharmacological terminology adopted in this paper is consistent with International Union of Basic and Clinical Pharmacology (IUPHAR) recommendations. Concentration–response curves were analyzed by nonlinear regression using Graph Pad Prism 6.0 (La Jolla, CA, USA). […] Concentration–response curves were fitted with the four-parameter logistic nonlinear regression model (1) Effect=baseline+Emax−baseline/1+10^logEC50−X·n where X is the agonist concentration and n is the Hill coefficient. Ligand efficacy was expressed as intrinsic activity (α) calculated as a ratio of the peptide Emax to the Emax of the standard agonist (Supplementary Materials, Figure S7). […] All statistical analyses were performed using Graph Pad Prism 6.0 (La Jolla, CA, USA). Differences between groups were analyzed with one-way ANOVA and a post hoc multiple comparison by the Student–Newman–Keuls test. A probability level of 0.05 or smaller was used to indicate statistical significance.

Where [7] appears, read: CHO cells co-expressing human MOR and Gαqi5, n = 5, SEM.
The mark [8] stands for this setting: CHO cells co-expressing human KOR and Gαqi5, n = 5.

Each structure is given as a SMILES string. Where two headings read alike, the source gives them in different places. Where a SMILES comes first, the peptide text is derived from it. Bridges are numbered along the chain shown (N, C = ends). [ ]: non-standard residue; d: D form. Nle = CCCC[C@H](N)C(=O)O

T3 sequence (P41145 whole entry): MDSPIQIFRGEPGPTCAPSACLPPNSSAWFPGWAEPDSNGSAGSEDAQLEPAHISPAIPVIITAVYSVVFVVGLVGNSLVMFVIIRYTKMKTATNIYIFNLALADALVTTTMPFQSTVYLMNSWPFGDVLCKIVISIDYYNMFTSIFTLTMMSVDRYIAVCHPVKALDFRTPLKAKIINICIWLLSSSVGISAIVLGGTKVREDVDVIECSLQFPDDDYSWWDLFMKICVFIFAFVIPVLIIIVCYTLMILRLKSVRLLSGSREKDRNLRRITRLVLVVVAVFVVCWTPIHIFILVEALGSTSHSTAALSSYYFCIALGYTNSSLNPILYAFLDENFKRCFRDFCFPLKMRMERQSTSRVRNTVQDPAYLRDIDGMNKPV
Sequence of human NK1 (P25103 whole entry): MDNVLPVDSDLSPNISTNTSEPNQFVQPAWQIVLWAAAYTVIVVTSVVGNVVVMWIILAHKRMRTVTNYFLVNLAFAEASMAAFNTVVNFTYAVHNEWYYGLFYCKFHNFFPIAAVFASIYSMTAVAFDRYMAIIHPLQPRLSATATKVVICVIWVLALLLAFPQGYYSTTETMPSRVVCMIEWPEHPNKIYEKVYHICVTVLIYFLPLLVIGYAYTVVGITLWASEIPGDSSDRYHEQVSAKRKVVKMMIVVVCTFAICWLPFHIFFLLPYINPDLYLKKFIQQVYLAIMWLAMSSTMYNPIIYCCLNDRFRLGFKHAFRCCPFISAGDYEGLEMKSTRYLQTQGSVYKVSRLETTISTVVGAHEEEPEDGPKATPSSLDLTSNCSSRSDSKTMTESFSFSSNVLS
T1 sequence (P41145 whole entry): as the sequence (P41145 whole entry) above

Take `CSCC[C@H](NC(=O)[C@H](CC(C)C)NC(=O)CNC(=O)[C@H](Cc1ccccc1)NC(=O)[C@H](Cc1ccccc1)NC(=O)[C@H](CCC(N)=O)NC(=O)[C@@H]1CC(=O)NCCCC[C@@H](NC(=O)[C@@H](N)Cc2ccc(O)cc2)C(=O)N[C@@H](Cc2ccccc2)C(=O)N[C@@H](Cc2ccccc2)C(=O)N1)C(N)=O` [compound 4, Tyr-[D-Lys-Phe-Phe-Asp]-Gln-Phe-Phe-Gly-Leu-Met-NH2] (H-Y[dK]FFDQFFGLM-NH2; lactam 2-5): the results for the Ki in experiment [1] and in experiment [6] were 10.8 ± 0.85 nM and 15.6 ± 1.23 nM, respectively. In addition, the “MOR α ± SEM” value in experiment [2] (setting [7]) was determined as 0.90 ± 0.04. For the same compound, in experiment [3], the EC50 is 14.1 nM. Also, in experiment [3] (setting [8]), the “KOR α ± SEM” value was found to be 0.92 ± 0.05. In experiment [4], this compound registered a number of writhes of 4.5. Also, the “tolerance development (analgesic activity on Day 7 versus Day 1)” value in experiment [5] is on record as “did not cause tolerance development”.

With `CCCC[C@H](NC(=O)[C@H](CC(C)C)NC(=O)[C@@H](Cc1c[nH]c2ccccc12)NC(=O)[C@H](Cc1ccccc1)NC(=O)[C@@H](Cc1c[nH]c2ccccc12)NC(=O)[C@H](CC(N)=O)NC(=O)[C@@H]1CC(=O)NCCCC[C@@H](NC(=O)[C@@H](N)Cc2ccc(O)cc2)C(=O)N[C@@H](Cc2ccccc2)C(=O)N[C@@H](Cc2ccccc2)C(=O)N1)C(N)=O` [compound 2, Tyr-[D-Lys-Phe-Phe-Asp]-Asn-D-Trp-Phe-D-Trp-Leu-Nle-NH2] (H-Y[dK]FFDN[dW]F[dW]L[Nle]-NH2; lactam 2-5), the values for the Ki in experiment [1] and in experiment [6] were 7.46 ± 0.6 nM and 10.5 ± 0.6 nM, respectively. Also, the EC50 in experiment [2] (CHO cells co-expressing human MOR and Gαqi5, Fluo-4 AM calcium signal, n = 5, read-out: MOR pEC50 (CL95%) (converted)) is 31.6 nM; in experiment [3] (CHO cells co-expressing human KOR and Gαqi5, Fluo-4 AM calcium signal, n = 5, read-out: KOR pEC50 (CL95%) (converted)), 9.77 nM. In experiment [2] (calcium mobilization, from pEC50 values), the “lower potency at MOR as compared with 1” value is 30 fold. Also, the “MOR α ± SEM” value in experiment [2] (CHO cells co-expressing human MOR and Gαqi5, n = 5) worked out at 0.66; in experiment [2] (setting [7]) it was 0.66 ± 0.04. Besides, the “KOR α ± SEM” value in experiment [3] (setting [8]) amounted to 0.99 ± 0.05. The same compound came in with a number of writhes in experiment [4] of 12.4. Also, the “tolerance development (analgesic activity on Day 7 versus Day 1)” value in experiment [5] was “did not cause tolerance development”.
